According to US20240174618A1, “SUBSTITUTED (2-HETEROARYLOXYPHENYL)SULFONATES, SALTS THEREOF AND THEIR USE AS HERBICIDAL AGENTS” (Bayer Aktiengesellschaft, priority 2021, published 2024):

Experiments:
Format in all cases: in vivo
[1] = system: Triticum aestivum (TRZAS); assay: F. Post-emergence effect on useful plants, TRZAS; conditions: useful plant, application rate 80 g/ha
Method: (§1) Seeds of monocotyledonous and dicotyledonous weeds and crop plants were placed in sandy loam in plastic or organic planting pots, covered with soil and cultivated in a greenhouse under controlled growth conditions. 2 to 3 weeks after sowing, the test plants were treated at the one-leaf stage. The compounds of the invention, formulated in the form of wettable powders (WP) or as emulsion concentrates (EC), were then sprayed onto the green parts of the plants as aqueous suspension or emulsion with addition of 0.5% additive at a water application rate of 600 l/ha (converted). After the test plants had been kept in the greenhouse under optimum growth conditions for about 3 weeks, the activity of the preparations was rated visually in comparison to untreated controls.
(§2) For example, • 100% efficacy=plants have died, • 0% action=like untreated control plants.
Tables F1a to F4 below show the effects of selected compounds of the general formula (I) according to table 1 on various useful plants at an application rate corresponding to 320 g/ha or less, which were obtained by the experimental procedure mentioned above.

Viola tricolor (VIOTR) [2] = assay: C. Herbicidal pre-emergence efficacy, VIOTR; conditions: application rate 320 g/ha
Excerpt: (§3) Seeds of monocotyledonous and dicotyledonous weed plants and crop plants were placed in plastic or organic planting pots and covered with soil. The compounds of the invention, formulated in the form of wettable powders (WP) or as emulsion concentrates (EC), were then applied to the surface of the covering soil as aqueous suspension or emulsion with addition of 0.5% additive at a water application rate equivalent to 600 l/ha (converted). After the treatment, the pots were placed in a greenhouse and kept under good growth conditions for the test plants. After about 3 weeks, the efficacy of the preparations was scored visually in comparison with untreated controls as percentages. For example, • 100% efficacy=plants have died, • 0% efficacy=like untreated control plants.
(§4) Tables C1a to C14b below show the effects of selected compounds of the general formula (I) according to table 1 on various harmful plants at an application rate corresponding to 320 g/ha or less, which were obtained by the experimental procedure mentioned above.

Veronica persica (VERPE) = assay: E. Herbicidal post-emergence efficacy, VERPE
Method: as §1, §2
(§5) Tables E1a to E12b below show the effects of selected compounds of the general formula (I) according to table 1 on various harmful plants at an application rate corresponding to 320 g/ha or less, which were obtained by the experimental procedure mentioned above.

Viola tricolor (VIOTR) [3] = assay: E. Herbicidal post-emergence efficacy, VIOTR
Method: as §1, §2, §5

[4] = system: Pharbitis purpurea (PHBPU); assay: E. Herbicidal post-emergence efficacy, PHBPU
Method: as §1, §2, §5

Zea mays (ZEAMX) = assay: D. Pre-emergence effect on useful plants, ZEAMX; conditions: useful plant
Excerpt: as §3
(§6) Tables D1a to D5b below show the effects of selected compounds of the general formula (I) according to table 1 on various useful plants at an application rate corresponding to 320 g/ha or less, which were obtained by the experimental procedure mentioned above.

[5] = system: Triticum aestivum (TRZAS); assay: D. Pre-emergence effect on useful plants, TRZAS; conditions: useful plant
Excerpt: as §3, §6

Brassica napus (BRSNW) = assay: D. Pre-emergence effect on useful plants, BRSNW; conditions: useful plant
Excerpt: as §3, §6

[6] = system: Amaranthus retroflexus (AMARE); assay: E. Herbicidal post-emergence efficacy, AMARE
Method: as §1, §2, §5

Kochia scoparia (KCHSC) [7] = assay: E. Herbicidal post-emergence efficacy, KCHSC
Method: as §1, §2, §5

Kochia scoparia (KCHSC) [8] = assay: C. Herbicidal pre-emergence efficacy, KCHSC
Excerpt: as §3, §4

[9] = system: Amaranthus retroflexus (AMARE); assay: C. Herbicidal pre-emergence efficacy, AMARE; conditions: scored after about 3 weeks
Excerpt: as §3, §4

[10] = system: Matricaria inodora (MATIN); assay: C. Herbicidal pre-emergence efficacy, MATIN; conditions: 320 g/ha, scored after about 3 weeks
Excerpt: as §3, §4

[11] = system: Digitaria sanguinalis (DIGSA); assay: C. Herbicidal pre-emergence efficacy, DIGSA; conditions: 320 g/ha, scored after about 3 weeks
Excerpt: as §3, §4

Glycine max (GLXMA) = assay: D. Pre-emergence effect on useful plants, GLXMA; conditions: useful plant
Excerpt: as §3, §6

[12] = system: Abutilon theophrasti (ABUTH); assay: E. Herbicidal post-emergence efficacy, ABUTH; conditions: application rate 320 g/ha
Method: as §1, §2, §5

Setaria viridis (SETVI) = assay: C. Herbicidal pre-emergence efficacy, SETVI; conditions: 320 g/ha, scored after about 3 weeks
Excerpt: as §3, §4

Row | SMILES | Post-emergence efficacy against TRZAS in % [1] [%] | Pre-emergence efficacy against VIOTR in % (Viola tricolor (VIOTR) [2]) [%] | Post-emergence efficacy against VERPE in % (Veronica persica (VERPE); application rate 80 g/ha) [%] | Post-emergence efficacy against VERPE in % (Veronica persica (VERPE); application rate 320 g/ha) [%] | Post-emergence efficacy against PHBPU in % ([4]; application rate 320 g/ha) [%] | Pre-emergence efficacy against ZEAMX in % (Zea mays (ZEAMX); application rate 80 g/ha) [%] | Pre-emergence efficacy against TRZAS in % ([5]; application rate 80 g/ha) [%] | Pre-emergence efficacy against TRZAS in % ([5]; application rate 320 g/ha) [%] | Pre-emergence efficacy against BRSNW in % (Brassica napus (BRSNW); application rate 80 g/ha) [%] | Post-emergence efficacy against AMARE in % ([6]; application rate 80 g/ha) [%] | Post-emergence efficacy against AMARE in % ([6]; application rate 320 g/ha) [%] | Post-emergence efficacy against KCHSC in % (Kochia scoparia (KCHSC) [7]; application rate 80 g/ha) [%] | Post-emergence efficacy against KCHSC in % (Kochia scoparia (KCHSC) [7]; application rate 320 g/ha) [%] | Pre-emergence efficacy against KCHSC in % (Kochia scoparia (KCHSC) [8]; application rate 320 g/ha) [%] | Pre-emergence efficacy against AMARE ([9]; 80 g/ha) [%] | Pre-emergence efficacy against AMARE ([9]; 320 g/ha) [%] | further results
1 | N#Cc1cccc(Oc2ncc(Cl)cn2)c1OS(=O)(=O)CC1CC1(Cl)Cl (centres unmarked) [Example I-78] | 0 | 100 | 100 | 100 | 100 | 0 | 0 | 0 | 20 | 90 | 100 | 100 | 100 | 100 | 100 | 100 | Post-emergence efficacy against VIOTR in % (Viola tricolor (VIOTR) [3]; application rate 80 g/ha): 90%; Post-emergence efficacy against VIOTR in % (Viola tricolor (VIOTR) [3]; application rate 320 g/ha): 100%; Post-emergence efficacy against PHBPU in % ([4]; application rate 80 g/ha): 90%; Pre-emergence efficacy against ZEAMX in % (Zea mays (ZEAMX); application rate 320 g/ha): 20%; Pre-emergence efficacy against KCHSC in % (Kochia scoparia (KCHSC) [8]; application rate 80 g/ha): 100%
2 | O=S(=O)(CC=C(Cl)Cl)Oc1c(F)cccc1Oc1ncc(Cl)cn1 [Example I-85] | 0 | 80 | 100 | 100 | 90 | 0 | 0 | 10 | 0 | 90 | 100 | 80 | 100 | 100 | 100 | 100 | Pre-emergence efficacy against MATIN [10]: 80%; Pre-emergence efficacy against DIGSA [11]: 100%; Pre-emergence efficacy against BRSNW in % (Brassica napus (BRSNW); application rate 320 g/ha): 0%; Pre-emergence efficacy against GLXMA in % (Glycine max (GLXMA); application rate 80 g/ha): 0%; Pre-emergence efficacy against GLXMA in % (Glycine max (GLXMA); application rate 320 g/ha): 0%; Post-emergence efficacy against ABUTH in % [12]: 80%; Pre-emergence efficacy against SETVI (Setaria viridis (SETVI)): 90%
